These are literature values, as cited in patent US20030091531A1, “Method and composition for insect and animal control” (priority 2001, published 2003).

For data set [1] the following is noted: classified by the EPA.
For data set [2] the following is noted: unstabilised active; degrades rapidly under ultraviolet light, water, oxygen and soil microbes.

On to `CNC(=O)CSP(=S)(OC)OC` [Dimethoate, dimethoate], for which, in data set [1], the EPA carcinogen classification entry was “group 3 carcinogen”.
Regarding `CCCCCCCCCC(C)=O` [methyl nonyl ketone], the shelf life result in data set [2] is “twelve”.
